These results are taken from article PMC7531004, “Discovery of gramicidin A analogues with altered activities by multidimensional screening of a one-bead-one-compound library” (Nature Communications, 2020).

A short description of series [1]: H+/Na+ transport assay of bead-derived peptides (one-point).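 Further: relative to parent gramicidin A activity set to 1.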 It is filed as biochemical. The arrangement: key: relative activity; mean of two control wells = 1.00. The following applies: bead-derived peptide solution, EYPC/EYPG LUVs. Summed up: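 Values are normalized fluorescence, with Triton X-100 defining 100% and untreated LUVs 0%, and the two control wells averaging 1.00. Vesicles carried 1.0 mM pyranine and included egg yolk phosphatidylglycerol. Peptides were incubated with them 30 min at room temperature.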

The test system of series [2] is Streptococcus pyogenes SSI-9. Description: Antibacterial activity assay of bead-derived peptides (three concentrations). It is filed as cell-based. The arrangement: key: +++: inhibition by the 640-fold diluted peptide solution; ++: inhibition by the 160-fold diluted solution; +: inhibition by the 40-fold diluted solution; -: no inhibition. Particulars: S. pyogenes, bead-derived peptide solution, three concentrations. The procedure, abridged: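 Three stock dilutions per peptide (none, 4-fold, 16-fold in DMSO) are screened in 96-well format. The medium is blood-supplemented cation-adjusted MHB, inoculated with 2 × 10^5 CFU S. pyogenes SSI-9. Growth is read as cell precipitation at 18 h, 37 °C.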

Series [3] relates to P388 mouse leukemia cells. The following applies: 92 h. The procedure, abridged:
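First, library peptide stocks are diluted 250-fold in RPMI1640 with 10% heat-inactivated FBS. Next, they are mixed with P388 cells to give 1 × 10^4 cells/mL and incubated 92 h at 37 °C, 5% CO2. Finally, viability (%) is scored by WST-1 absorbance at 415 nm.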

Structures are written as SMILES. Where a SMILES comes first, the peptide text is derived from it. [ ]: non-standard residue; d: D form. The star is where a group is joined. NHCH2CH2OH = OCCN*; For = O=C*

As to `CC(C)C[C@@H](NC(=O)[C@H](Cc1c[nH]c2ccccc12)NC(=O)[C@H](NC(=O)[C@H](Cc1c[nH]c2ccccc12)NC(=O)[C@H](NC(=O)[C@H](Cc1c[nH]c2ccccc12)NC(=O)[C@@H](CC(C)C)NC(=O)[C@@H](NC(=O)[C@H](NC(=O)[C@H](C)NC(=O)[C@H](NC(=O)[C@H](C)NC(=O)CNC(=O)[C@@H](NC=O)C(C)C)C(C)C)C(C)C)C(C)C)C(C)C)C(C)C)C(=O)N[C@@H](Cc1c[nH]c2ccccc12)C(=O)NCCO` [compound 97] (For-VGA[dV]A[dV]V[dL]W[dV]W[dV]W[dL]W-NHCH2CH2OH), the “H+/Na+ transport activity normalized against the value of 1 (1.00)” value (“H+/Na+ transport activity normalized” for short) in series [1] is given as 1.24. For the same compound, the antibacterial activity entry in series [2] is “+”. Besides, the cell viability/% in series [3] was determined as 59.7%.
Turning to `CC(C)C[C@@H](NC(=O)[C@H](C)NC(=O)[C@H](NC(=O)[C@H](C)NC(=O)CNC(=O)[C@@H](NC=O)C(C)C)C(C)C)C(=O)N[C@H](C(=O)N[C@@H](C(=O)N[C@@H](Cc1c[nH]c2ccccc12)C(=O)N[C@H](CC(C)C)C(=O)N[C@@H](Cc1c[nH]c2ccccc12)C(=O)N[C@H](CC(C)C)C(=O)N[C@@H](Cc1c[nH]c2ccccc12)C(=O)N[C@@H](C(=O)N[C@@H](Cc1c[nH]c2ccccc12)C(=O)NCCO)C(C)C)C(C)C)C(C)C` [compound 9535] (For-VGA[dV]A[dL]V[dV]W[dL]W[dL]W[dV]W-NHCH2CH2OH), in series [1], the “H+/Na+ transport activity normalized” value was 1.16. The antibacterial activity entry in series [2] is recorded as “-”. The compound also gave a cell viability/% in series [3] of 3.8%.
For `CC(C)C[C@@H](NC(=O)[C@H](C)NC(=O)[C@H](NC(=O)[C@H](C)NC(=O)CNC(=O)[C@@H](NC=O)C(C)C)[C@H](C)O)C(=O)N[C@H](C(=O)N[C@H](CC(C)C)C(=O)N[C@@H](Cc1c[nH]c2ccccc12)C(=O)N[C@@H](C(=O)N[C@@H](Cc1c[nH]c2ccccc12)C(=O)N[C@H](CC(C)C)C(=O)N[C@@H](Cc1c[nH]c2ccccc12)C(=O)N[C@@H](C(=O)N[C@@H](Cc1c[nH]c2ccccc12)C(=O)NCCO)C(C)C)[C@H](C)O)C(C)C` [compound 1284] (For-VGA[dT]A[dL]V[dL]W[dT]W[dL]W[dV]W-NHCH2CH2OH), in that order: 1.06, “-” and 71.2%.
For `CC(C)C[C@@H](NC(=O)[C@H](C)NC(=O)CNC(=O)[C@@H](NC=O)C(C)C)C(=O)N[C@@H](C)C(=O)N[C@@H](C(=O)N[C@H](C(=O)N[C@@H](C(=O)N[C@@H](Cc1c[nH]c2ccccc12)C(=O)N[C@H](CC(C)C)C(=O)N[C@@H](Cc1c[nH]c2ccccc12)C(=O)N[C@H](CC(C)C)C(=O)N[C@@H](Cc1c[nH]c2ccccc12)C(=O)N[C@@H](C(=O)N[C@@H](Cc1c[nH]c2ccccc12)C(=O)NCCO)C(C)C)[C@H](C)O)C(C)C)C(C)C` [compound 13268] (For-VGA[dL]A[dV]V[dT]W[dL]W[dL]W[dV]W-NHCH2CH2OH), in series [1], the “H+/Na+ transport activity normalized” value is 1.03. In addition, in series [2], the antibacterial activity result is “+”. Further, the cell viability/% in series [3] came to 100.0%.
For `CC(C)C[C@@H](NC(=O)[C@H](C)NC(=O)CNC(=O)[C@@H](NC=O)C(C)C)C(=O)N[C@@H](C)C(=O)N[C@H](CC(C)C)C(=O)N[C@H](C(=O)N[C@@H](C(=O)N[C@@H](Cc1c[nH]c2ccccc12)C(=O)N[C@@H](C(=O)N[C@@H](Cc1c[nH]c2ccccc12)C(=O)N[C@@H](C(=O)N[C@@H](Cc1c[nH]c2ccccc12)C(=O)N[C@H](CC(C)C)C(=O)N[C@@H](Cc1c[nH]c2ccccc12)C(=O)NCCO)[C@H](C)O)C(C)C)C(C)C)C(C)C` [compound 8498] (For-VGA[dL]A[dL]V[dV]W[dV]W[dT]W[dL]W-NHCH2CH2OH), in that order: 1.01, “-” and 52.6%.
For `CC(C)C[C@@H](NC(=O)[C@H](C)NC(=O)CNC(=O)[C@@H](NC=O)C(C)C)C(=O)N[C@@H](C)C(=O)N[C@H](CC(C)C)C(=O)N[C@H](C(=O)N[C@H](CC(C)C)C(=O)N[C@@H](Cc1c[nH]c2ccccc12)C(=O)N[C@@H](C(=O)N[C@@H](Cc1c[nH]c2ccccc12)C(=O)N[C@@H](C(=O)N[C@@H](Cc1c[nH]c2ccccc12)C(=O)N[C@@H](C(=O)N[C@@H](Cc1c[nH]c2ccccc12)C(=O)NCCO)C(C)C)[C@H](C)O)C(C)C)C(C)C` [compound 8722] (For-VGA[dL]A[dL]V[dL]W[dV]W[dT]W[dV]W-NHCH2CH2OH), in that order: 1.09, “-” and 70.8%.
On to `CNC(=O)C[C@@H](NC(=O)[C@@H](NC(=O)[C@@H](CC(C)C)NC(=O)[C@H](C)NC(=O)[C@@H](CC(C)C)NC(=O)[C@H](C)NC(=O)CNC(=O)[C@@H](NC=O)C(C)C)C(C)C)C(=O)N[C@@H](Cc1c[nH]c2ccccc12)C(=O)N[C@@H](C(=O)N[C@@H](Cc1c[nH]c2ccccc12)C(=O)N[C@@H](C(=O)N[C@@H](Cc1c[nH]c2ccccc12)C(=O)N[C@H](CC(C)C)C(=O)N[C@@H](Cc1c[nH]c2ccccc12)C(=O)NCCO)C(C)C)C(C)C` [compound 11601] (For-VGA[dL]A[dL]V[dD](NHMe)W[dV]W[dV]W[dL]W-NHCH2CH2OH), for which the “H+/Na+ transport activity normalized” value in series [1] came out at 1.23. For the same compound, the antibacterial activity result in series [2] was “-”. The cell viability/% in series [3] amounted to 98.9%.
For `CNC(=O)C[C@@H](NC(=O)[C@H](Cc1c[nH]c2ccccc12)NC(=O)[C@H](NC(=O)[C@H](Cc1c[nH]c2ccccc12)NC(=O)[C@H](NC(=O)[C@H](Cc1c[nH]c2ccccc12)NC(=O)[C@@H](CC(C)C)NC(=O)[C@@H](NC(=O)[C@H](NC(=O)[C@H](C)NC(=O)[C@H](NC(=O)[C@H](C)NC(=O)CNC(=O)[C@@H](NC=O)C(C)C)C(C)C)C(C)C)C(C)C)C(C)C)C(C)C)C(=O)N[C@@H](Cc1c[nH]c2ccccc12)C(=O)NCCO` [compound 5604] (For-VGA[dV]A[dV]V[dL]W[dV]W[dV]W[dD](NHMe)W-NHCH2CH2OH), in series [1], the “H+/Na+ transport activity normalized” value stood at 1.03. Further, the antibacterial activity result in series [2] is “-”. In series [3], this compound displayed a cell viability/% of 69.7%.
Consider `CNC(=O)C[C@@H](NC(=O)[C@@H](NC(=O)[C@H](NC(=O)[C@H](C)NC(=O)[C@@H](CC(C)C)NC(=O)[C@H](C)NC(=O)CNC(=O)[C@@H](NC=O)C(C)C)C(C)C)C(C)C)C(=O)N[C@@H](Cc1c[nH]c2ccccc12)C(=O)N[C@@H](C(=O)N[C@@H](Cc1c[nH]c2ccccc12)C(=O)N[C@H](CC(C)C)C(=O)N[C@@H](Cc1c[nH]c2ccccc12)C(=O)N[C@@H](C(=O)N[C@@H](Cc1c[nH]c2ccccc12)C(=O)NCCO)C(C)C)C(C)C` [compound 5778] (For-VGA[dL]A[dV]V[dD](NHMe)W[dV]W[dL]W[dV]W-NHCH2CH2OH), for which, in series [1], the “H+/Na+ transport activity normalized” value worked out at 1.19. Besides, the antibacterial activity entry in series [2] is recorded as “-”. In series [3], this compound registered a cell viability/% of 77.8%.
